Results on two compounds are retold here after patent publication US12116356B2, “N-heterocyclic five-membered ring-containing capsid protein assembly inhibitor, pharmaceutical composition thereof, and use thereof” (CHIA TAI TIANQING PHARMACEUTICAL GROUP CO., LTD., priority 2018, dated 2024).

Data set [1] can be described thus: Plasma protein binding assay (equilibrium dialysis), dog plasma. Type of data set: in vitro ADME. Here is the method:
(§1) Formulation of plasma sample: 495 μL of blank plasmas of the corresponding species (mouse, rat, dog, monkey, and human) were drawn respectively, and thereto was added 5 μL of the corresponding test compound solution or positive control to give plasma sample solutions having a plasma drug concentration of the compound of 1 μM, and 10 μM, respectively (formulated with acetonitrile).
(§2) The pre-treated dialysis membrane was placed in a high-throughput equilibrium dialysis device, and 100 μL of the plasma sample solution and PBS buffer solution were drawn and added respectively to both sides of the dialysis membrane (sample side and buffer side) (n=3). After the equilibration device was sealed with a film, it was incubated at 37° C. overnight (100 rpm). After dialysis equilibrium was reached, 50 μL samples were drawn from the sample side and the buffer side, respectively, and the reaction was terminated by adding ice acetonitrile containing an internal standard.
(§3) Sample pre-treatment: To 50 μL of the plasma-side sample was added 450 μL of ice acetonitrile containing an internal standard, and then precipitated. After vortexing for 5 minutes, the sample was centrifugated (12000 rpm, 4° C.) for 10 minutes. 75 μL of the supernatant was pipetted, and 75 μL of ultrapure water was added thereto for dilution and mixed uniformly. 1 μL of the resulting solution was injected for analysis. To 50 μL of the PBS-side sample was added 250 μL of ice acetonitrile with an internal standard, and precipitated. After vortexing for 5 min, the sample was centrifugated (12000 rpm, 4° C.) for 10 min. 75 μL of the supernatant was pipetted, and 75 μL of ultrapure water was added thereto for dilution and mixed uniformly. 2 μL of the resulting solution was injected for analysis.

Data set [2] is described as follows: Plasma protein binding assay (equilibrium dialysis), rat plasma. It counts as in vitro ADME. As to the method:
as §1, §2, §3
Background: In equilibrium dialysis only unbound substance equilibrates across the membrane.

Data set [3] has as its system HBV DNA in HepG2.2.15 cells. Briefly: In vitro cell HBV DNA inhibitory activity (anti-HBV activity) in HepG2.2.15 cells. Type of data set: cell-based. The settings on record: Hepatitis B virus, 144 h; anti-HBV activity in HepG2.2.15 cells, 6 days treatment, intracellular capsid HBV DNA by qPCR; read-out: EC50. The essentials: (§4)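 HepG2.2.15 or HepAD38 cells on collagen-coated plates were grown 48 h, then treated 6 days with 10-point two-fold compound dilutions, with medium and compound refreshed every 72 h. Intracellular capsid HBV DNA quantified by real-time qPCR. EC50 from Ct-based inhibition by four-parameter fit.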
Background: Quantitative PCR measures a nucleic acid by following its amplification.

Data set [4] can be described thus: Plasma protein binding assay (equilibrium dialysis), monkey plasma. It counts as in vitro ADME. As to the method: as §1, §2, §3
The target of a further data set is CYP 3A4 (Homo sapiens (Human), UniProt P08684). Briefly: CYP450 enzyme inhibition study (liver microsomes, subtype IC50). It counts as in vitro ADME. Conditions: 30 minutes, read-out: Subtypes IC50 3A4. Here is the method:
500 μL of a final incubation system contains 50 μL of liver microsomes (protein concentration: 0.2 mg/mL), 1 μL of mixed CYP450 specific substrates (CYP1A2, CYP 2B6, CYP 2C9, CYP2C19, CYP 2D6, and CYP 3A4), 398 μL PBS buffer (PH7.4), 1 μL specific positive inhibitor (positive control group) or the test compound (formulated with acetonitrile), and 50 μL NADPH+MgCl2. Duplicate incubation systems of 0.5 mL each were formulated for each CYP450 subtype. A total volume of 450 μL of a uniformly mixed solution of the substrate and the enzyme was formulated in each tube, and the solution and NADPH were pre-incubated at 37° C. for 5 minutes, respectively. Then 50 μL of the mixed solution of NADPH+MgCl2 was added for reaction. 50 μL of the reaction solution was taken out at 30 minutes, and the reaction was terminated with 300 μL of ice acetonitrile containing an internal standard. In addition, two control groups of 500 μL each without NADPH were prepared in parallel as a negative control group.
Sample pre-treatment: To 50 μL of the incubated sample was added 300 μL of ice acetonitrile containing an internal standard, and then precipitated. After vortexing for 5 minutes, the sample was centrifugated (12000 rpm, 4° C.) for 10 minutes. 75 μL of the supernatant was pipetted, and 75 μL of ultrapure water was added thereto for dilution and mixed uniformly. 1 μL of the resulting solution was injected for analysis.
Background: Liver microsomes are vesicles of endoplasmic reticulum, rich in cytochrome P450 enzymes.

Data set [5] in a line: Plasma protein binding assay (equilibrium dialysis), mouse plasma. Type of data set: in vitro ADME. Here is the method: as §1, §2, §3
The nature of data set [6]: Stability of rat liver microsomes in vitro. It counts as in vitro ADME. As to the method: 300 μL of a final incubation system contains 30 μL of liver microsomes (protein concentration: 0.15 mg/mL), 30 μL NADPH+MgCl2, 3 μL substrate (formulated with acetonitrile), and 237 μL PBS buffer. Duplicate incubation systems of 0.3 mL each were formulated for each species. A total volume of 270 μL of a uniformly mixed solution of the substrate and the enzyme was formulated in each tube, the solution and NADPH were pre-incubated at 37° C. for 5 minutes, respectively. Then 30 μL of the mixed solution of NADPH+MgCl2 was added for reaction. 50 μL of the reaction solution was taken out at 0, 10, 30, and 60 mins, and the reaction was terminated with 300 μL of ice acetonitrile containing an internal standard.
Sample pre-treatment: To 50 μL of the incubated sample was added 300 μL of ice acetonitrile containing diazepam as an internal standard and then precipitated. After vortexing for 5 minutes, the sample was centrifugated (12000 rpm, 4° C.) for 10 minutes. 75 μL of the supernatant was pipetted into a 96-well plate, and then diluted with 75 μL ultrapure water and mixed uniformly. 0.5 μL of the resulting solution was injected and analyzed by LC-MS/MS.

A further data set has as its system HBV DNA in HepAD38 cells. Description: In vitro cell HBV DNA inhibitory activity (anti-HBV activity) in HepAD38 cells. It counts as cell-based. Conditions: Hepatitis B virus, 144 h; anti-HBV activity in HepAD38 cells, 6 days treatment, intracellular capsid HBV DNA by qPCR; read-out: EC50. The essentials: as §4

Sequence of CYP 3A4 (P08684 whole entry): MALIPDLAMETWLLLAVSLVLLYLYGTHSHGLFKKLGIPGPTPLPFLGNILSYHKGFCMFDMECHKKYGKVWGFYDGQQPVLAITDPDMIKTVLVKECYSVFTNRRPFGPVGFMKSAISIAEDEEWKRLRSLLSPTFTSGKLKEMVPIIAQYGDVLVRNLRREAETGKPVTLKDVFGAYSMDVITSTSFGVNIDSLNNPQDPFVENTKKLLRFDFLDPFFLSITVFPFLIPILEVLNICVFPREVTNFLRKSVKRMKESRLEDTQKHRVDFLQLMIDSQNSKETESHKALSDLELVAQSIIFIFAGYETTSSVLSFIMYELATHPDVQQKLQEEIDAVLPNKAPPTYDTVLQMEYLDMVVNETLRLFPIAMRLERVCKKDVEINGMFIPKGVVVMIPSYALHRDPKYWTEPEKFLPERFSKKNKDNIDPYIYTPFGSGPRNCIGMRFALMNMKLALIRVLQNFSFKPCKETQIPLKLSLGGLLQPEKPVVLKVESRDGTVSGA

On to `Cc1c(C(=O)Nc2ccc(F)c(C#N)c2)c(C)n(C)c1C(=O)C(=O)N[C@@H](C)C(F)(F)F` [Example 12], for which the Binding rate in data set [1] (1 μM) was 85.9%; in data set [1] (10 μM), 85.9%; in data set [2] (1 μM), 82.0%; in data set [2] (10 μM) it was 79.2%; in data set [4] (1 μM), 90.7%; in data set [4] (10 μM) it was 90.6%. For the same compound, the Binding rate in data set [5] (1 μM) turned out to be 75.3%; in data set [5] (10 μM), 74.5%. The concentration for a half-maximal effect (EC50) (in data set [3]; in the data set on HBV DNA in HepAD38 cells) was below 10 nM throughout. Also, the IC50 at CYP 3A4 is above 200000 nM. For the same compound, in data set [6], the “Remaining (%) at 60 min” value is 65.0%.

Regarding `Cc1c(C(=O)Nc2ccc(F)c(C#N)c2)c(C)n(C)c1C(=O)C(=O)NC1(C(F)(F)F)COC1` [Example 25, N-(3-cyano-4-fluorophenyl)-1,2,4-trimethyl-5-(2-oxo-2-((3-(trifluoromethyl)oxetan-3-yl)amino)acetyl)-1H-pyrrole-3-carboxamide], the Binding rate is 87.0% in data set [1] (1 μM); 86.8% in data set [1] (10 μM); 79.5% in data set [2] (1 μM); 77.0% in data set [2] (10 μM); 87.4% in data set [4] (1 μM); 85.6% in data set [4] (10 μM). Besides, the results for the Binding rate in data set [5] (1 μM) and in data set [5] (10 μM) were 76.5% and 74.7%, respectively. In addition, the EC50 (in data set [3]; with HBV DNA in HepAD38 cells) was below 10 nM in each case. Further, the IC50 at CYP 3A4 was 76000 nM. Also, the “Remaining (%) at 60 min” value in data set [6] turned out to be 52.0%.

Broadly, the EC50 is the midpoint of the concentration-response curve. The term IC50 denotes the point on the concentration scale where inhibition reaches its midpoint.
